Laboratory results published in ChEMBL document CHEMBL5247651, “Oxadiazolopyridine Derivatives as Efficacious Mitochondrial Uncouplers in the Prevention of Diet-Induced Obesity” (J Med Chem, 2023).
Activity calls are given as the source filed them. The calls are words filed in the database; no cut-off is given here.

Experiments:
[1] = test system: Mus musculus; assay: Anti-obesity activity in high-fat diet induced obesity C57BL/6 mouse model assessed as increase in carbon dioxide production at 130 mg/kg, po measured upto 4 hrs by indirect calorimetric analysis; format: functional, organism-based
[2] = Induction of mitochondrial uncoupling activity in rat L6 cells assessed as increase in oxygen consumption rate at 0.37 to 200 uM measured after 90 mins by agilent Seahorse XF analyzer relative to BAM15; format: functional; conditions: dose 0.37-200 µM, 1.5 h
[3] = Cmax in C57BL/6 mouse at 10 mg/kg, po administered via gavage measured upto 24 hrs by LC/MS-MS analysis; format: ADME, organism-based; design: dose 10 mg/kg, time < 24 hrs, route po; conditions: in vivo
[4] = Half life in C57BL/6 mouse at 10 mg/kg, po administered via gavage measured upto 24 hrs by LC/MS-MS analysis; format: ADME, organism-based; conditions: in vivo
[5] = Cmax in Swiss albino mouse at 10 mg/kg, po administered via gavage measured upto 24 hrs by LC/MS-MS analysis; format: ADME, organism-based; design: time < 24 hrs, dose 10 mg/kg, route po; conditions: in vivo
[6] = Half life in Swiss albino mouse at 10 mg/kg, po administered via gavage measured upto 24 hrs by LC/MS-MS analysis; format: ADME, organism-based; conditions: in vivo
[7] = Induction of mitochondrial respiration in rat L6 cells assessed as fold increase in basal respiration upto 200 uM; format: functional
[8] = Induction of mitochondrial respiration in rat L6 cells assessed as fold increase in basal respiration at 25 uM followed by BAM15 addition; format: functional
[9] = test system: L6; assay: Induction of mitochondrial respiration in rat L6 cells assessed as fold increase in basal respiration at 25 uM in presence of antimycin and rotenone; format: functional, cell-based
[10] = Cmax in C57BL/6 mouse at 1 mg/kg, iv measured upto 24 hrs by LC/MS-MS analysis; format: ADME, organism-based; design: time < 24 hrs, dose 1 mg/kg, route iv; conditions: in vivo
[11] = Half life in C57BL/6 mouse at 1 mg/kg, iv measured upto 24 hrs by LC/MS-MS analysis; format: ADME, organism-based; conditions: in vivo
[12] = Observed apparent volume of distribution in C57BL/6 mouse at 1 mg/kg, iv measured upto 24 hrs by LC/MS-MS analysis; format: ADME, organism-based; conditions: in vivo, read-out: Vz
[13] = Observed volume of distribution at steady state in C57BL/6 mouse at 1 mg/kg, iv measured upto 24 hrs by LC/MS-MS analysis; format: ADME, organism-based; conditions: in vivo, read-out: Vdss
[14] = test system: Mus musculus; assay: Anti-obesity activity in high-fat diet induced obesity C57BL/6 mouse model assessed as increase in oxygen consumption at 130 mg/kg, po measured upto 4 hrs by indirect calorimetric analysis; format: functional, organism-based
[15] = test system: Mus musculus; assay: Anti-obesity activity in high-fat diet induced obesity C57BL/6 mouse model assessed as increase in energy expenditure at 130 mg/kg, po measured upto 4 hrs by indirect calorimetric analysis; format: functional, organism-based
[16] = test system: Mus musculus; assay: Anti-obesity activity in high-fat diet induced obesity C57BL/6 mouse model assessed as increase in carbohydrate oxidation at 130 mg/kg, po measured upto 4 hrs by indirect calorimetric analysis; format: functional, organism-based
[17] = test system: Mus musculus; assay: Anti-obesity activity in high-sugar western diet induced obesity C57BL/6j mouse model assessed as decrease in body weight at 130 mg/kg per day, po administered for 14 days; format: functional, organism-based; conditions: time 14.0 day
[18] = test system: Mus musculus; assay: Anti-obesity activity in high-sugar western diet induced obesity C57BL/6j mouse model assessed as decrease in fat-free lean mass at 130 mg/kg per day, po administered measured after 2 weeks by EchoMRI analysis; format: functional; design: scale not given: the % may be the effect or the level left
[19] = test system: Mus musculus; assay: Anti-obesity activity in high-sugar western diet induced obesity C57BL/6j mouse model assessed as decrease in fat-free mass body composition at 130 mg/kg per day, po administered measured after 2 weeks by EchoMRI analysis (reference value: 77%); format: functional; design: scale not given: the % may be the effect or the level left
[20] = test system: Mus musculus; assay: Anti-obesity activity in high-sugar western diet induced obesity C57BL/6j mouse model assessed as decrease in glucose level AUC at 130 mg/kg per day, po administered measured after 10 days in presence of glucose by glucose tolerance test; format: functional, organism-based; conditions: time 10.0 day
[21] = test system: Mus musculus; assay: Anti-obesity activity in high-sugar western diet induced obesity C57BL/6j mouse model assessed as decrease in insulin level at 130 mg/kg per day, po administered measured after 2 weeks; format: functional, organism-based
[22] = Drug distribution in fasted C57BL/6j mouse liver at 130 mg/kg, po by LC-MS/MS analysis; format: ADME, organism-based; conditions: in vivo
[23] = Drug distribution in fasted C57BL/6j mouse brown adipose tissue at 130 mg/kg, po by LC-MS/MS analysis; format: ADME, organism-based; conditions: in vivo
[24] = Drug distribution in fasted C57BL/6j mouse […] white adipose tissue at 130 mg/kg, po by LC-MS/MS analysis; format: ADME, organism-based; conditions: in vivo
[25] = Drug distribution in fasted C57BL/6j mouse brown adipose tissue at 10 mg/kg, po measured after 2 hrs by LC-MS/MS analysis; format: ADME, organism-based; conditions: in vivo
[26] = test system: Mus musculus; assay: Anti-obesity activity in high-sugar western diet induced obesity C57BL/6j mouse model assessed as reversal of body weight at 130 mg/kg per day, po administered via gavage daily measured after 3 weeks; format: functional, organism-based
[27] = test system: Mus musculus; assay: Anti-obesity activity in high-sugar western diet induced obesity C57BL/6j mouse model assessed as reversal of fat mass gain at 130 mg/kg per day, po administered via gavage daily measured after 3 weeks; format: functional, organism-based
[28] = test system: Mus musculus; assay: Anti-obesity activity in high-sugar western diet induced obesity C57BL/6j mouse model assessed as decrease in gonadal white adipose tissue weight at 130 mg/kg per day, po administered via gavage daily measured after 3 weeks; format: functional, organism-based
[29] = test system: Mus musculus; assay: Anti-obesity activity in high-sugar western diet induced obesity C57BL/6j mouse model assessed as decrease in retroperitoneal fat pad weight at 130 mg/kg per day, po administered via gavage daily measured after 3 weeks; format: functional, organism-based
[30] = test system: Mus musculus; assay: Anti-obesity activity in high-sugar western diet induced obesity C57BL/6j mouse model assessed as decrease in subcutaneous fat pad weight at 130 mg/kg per day, po administered via gavage daily measured after 3 weeks; format: functional, organism-based
[31] = test system: Mus musculus; assay: Anti-obesity activity in high-sugar western diet induced obesity C57BL/6j mouse model assessed as decrease in muscle weight at 130 mg/kg per day, po administered via gavage daily measured after 3 weeks; format: functional, organism-based
[32] = test system: Mus musculus; assay: Anti-obesity activity in high-sugar western diet induced obesity C57BL/6j mouse model assessed as effect on fecal triglyceride level at 130 mg/kg per day, po administered via gavage daily measured after 3 weeks by colorimetric analysis; format: functional, organism-based
[33] = test system: Mus musculus; assay: Anti-obesity activity in high-sugar western diet induced obesity C57BL/6j mouse model assessed as effect on free fatty acid level at 130 mg/kg per day, po administered via gavage daily measured after 3 weeks by fluorometric analysis; format: functional, organism-based
[34] = test system: Mus musculus; assay: Anti-obesity activity in high-sugar western diet induced obesity C57BL/6j mouse model assessed as decrease in rectal temperature at 130 mg/kg per day, po administered via gavage daily measured after 1 hr at day 11; format: functional, organism-based
[35] = test system: Mus musculus; assay: Anti-obesity activity in C57BL/6j mouse assessed as increase in glucose level at 130 mg/kg per day, po administered via gavage daily measured after 3 weeks by glucose tolerance test; format: functional, organism-based
[36] = test system: Mus musculus; assay: Anti-obesity activity in C57BL/6j mouse assessed as decrease in serum glucose level at 130 mg/kg per day, po administered via gavage daily measured after 3 weeks; format: functional, organism-based
[37] = test system: Mus musculus; assay: Anti-obesity activity in C57BL/6j mouse assessed as effect on plasma free fatty acid level at 130 mg/kg per day, po administered via gavage daily measured after 3 weeks; format: functional, organism-based

Cmax [3]: 87 µM | t1/2 [4]: 1.2 h | Cmax [5]: 57 µM | t1/2 [6]: 4.4 h | Cmax [10]: 16 µM | half-life [11]: 1.15 h | Vd [12]: 0.07 L/kg | Vd [13]: 0.06 L/kg | Drug uptake [22]: Active | Drug uptake [23]: Active | Drug uptake [24]: Active | Drug uptake [25]: Active
Structure (SMILES): Oc1nc2nonc2cc1Nc1c(F)c(F)c(F)c(F)c1F
Activity [1]: Active | Activity [2]: 48% | fold change (FC) [7]: 2 | fold change (FC) [8]: 3 | Activity [9]: inactive | Activity [14]: Active | Activity [15]: Active | Activity [16]: Active | Activity [17]: Active | Activity [18]: 4% | Activity [19]: 84% | Activity [20]: Active | Activity [21]: Active | Activity [26]: Active | Activity [27]: Active | Activity [28]: Active | Activity [29]: inactive | Activity [30]: inactive | Activity [31]: inactive | Activity [32]: inactive | Activity [33]: inactive | Activity [34]: Active | Activity [35]: inactive | Activity [36]: Active | Activity [37]: inactive
